pEC50: −log10 of the molar value. Values after ≈ are worked out from the molar mass of the structure shown. Counter-ions that a name gives are not always drawn.
Key:
Calu-3 cells = assay: Cytotoxicity (MTT / CellTiter-Glo cell viability) in Calu-3 cells; format: cell-based, human; conditions: at MNCC, 48 h exposure, normalized to untreated control, mean 2x
Text: (§1) An 80% viability threshold was established for selecting the compounds for further analysis.

[1] = as above; format: cell-based, human; conditions: human, Calu-3 cells, at MNCC, 48 h exposure, normalized to untreated control; mean 2x
Text: as §1

[2] = CC50 determination in Vero E6 cells; conditions: African green monkey
Text: (§2) DMSO was used as a negative control. To calculate the IC50 and CC50, a 4-parameter nonlinear regression sigmoidal concentration-response function was undertaken using the Prism 10 software package (GraphPad, Boston, MA, USA).

Vero-E6 cells = assay: Cytotoxicity (MTT / CellTiter-Glo cell viability) in Vero-E6 cells; format: cell-based, African green monkey; conditions: at MNCC, 48 h exposure, normalized to untreated control, mean 2x
Text: as §1

[3] = doses commonly administered in human treatments; ref Byakika-Kibwika et al., 2012 (ASi); Nicol et al., 2020 (CQ, HCQ); Gonzalez Canga et al., 2008 (IVM); Bhatia et al., 1986 (PQ); cited from earlier work
Vero-E6 and Calu-3 cells = assay: Maximum non-cytotoxic concentration (MNCC) determination; format: cell-based; conditions: 48 h
Text: as §1

SARS-CoV-2 = tested on: SARS-CoV-2; parameters: method as in Gendrot et al., 2020c; conditions: other studies; ref Gendrot et al., 2020c; cited from earlier work
[4] = Cytotoxicity (MTT / CellTiter-Glo cell viability) in Vero-E6 cells; format: cell-based, African green monkey; conditions: African green monkey, Vero-E6 cells, at MNCC, 48 h exposure, normalized to untreated control; mean 2x
Text: as §1

Vero E6 cells = assay: CC50 determination in Vero E6 cells; conditions: Vero E6
Text: as §2

[5] = CC50 (Figure 4 curve), Vero-E6, sigmoidal 4PL fit

Compound	% viability Calu-3 (Calu-3 cells) [%]	viability at 48 h [1] [%]	% viability Vero E6 (Vero-E6 cells) [%]	MNCC Concentration (Vero-E6 and Calu-3 cells) [µM]	viability at 48 h [4] [%]	also measured
CCN(CCO)CCCC(C)Nc1ccnc2cc(Cl)ccc12 (stereo not shown) [Hydroxychloroquine sulfate (HCQ), Hydroxychloroquine sulfate]	64	< 80	47			CC50 at 72 h ([2]; CC50% in µg/mL, Vero E6): 23.2 µg/mL; CC50 at 72 h ([2]; CC50%, Vero E6): 72.1 µM; CC50 at 72 h [2, 5]: 72.1 µM; % viability Vero E6 (Vero-E6 cells; listed as HCQ sulfate): < 80%; Cmax (maximum plasma concentration) [3]: 130 ng/mL
CCN(CC)CCCC(C)Nc1ccnc2cc(Cl)ccc12 (stereo not shown) [Chloroquine diphosphate (CQ), Chloroquine diphosphate]		105		5	103	CC50 at 72 h ([2]; CC50% in µg/mL, Vero E6): 17 µg/mL; CC50 at 72 h ([2]; CC50%, Vero E6): 53.2 µM; CC50 at 72 h [2, 5]: 57.1 µM; pEC50 (SARS-CoV-2): 5.68; EC90 (SARS-CoV-2): 3.8 µM; Cmax (maximum plasma concentration) [3]: 2700 ng/mL
O=C(Nc1cccc(C2=NCCN2)c1)Nc1cccc(C2=NCCN2)c1 [Imidocarb (IMI), Imidocarb]		106			92	
COc1c(C)c2c(c(O)c1C/C=C(\C)CCC(=O)O)C(=O)OC2 [Mycophenolic acid (MYC), Mycophenolic acid]		109		5	107	
CN1CCN(CCCN2c3ccccc3Sc3ccc(Cl)cc32)CC1 [Prochlorperazine (PCPZ), Prochlorperazine]	77	< 80		30	80	
CCCCN(CCCC)CC(O)c1cc(Cl)cc2c1-c1ccc(Cl)cc1/C2=C/c1ccc(Cl)cc1 (stereo not shown) [Lumefantrine (LUM), Lumefantrine]		86		250	86	
CN(C)c1ccc2nc3ccc(=[N+](C)C)cc-3sc2c1 [Methylene Blue Injection (MBi), Methylene Blue]		89		5	84	
NC(=O)c1ncn([C@@H]2O[C@H](CO)[C@@H](O)[C@H]2O)n1 [Ribavirin (RIB), Ribavirin]		91		250	104	
COc1cc(NC(C)CCCN)c2ncccc2c1 (stereo not shown) [Primaquine Phosphate (PQ), Primaquine Phosphate]		87		15	106	CC50 at 72 h ([2]; CC50% in µg/mL, Vero E6): 5.5 µg/mL; CC50 at 72 h ([2]; CC50%, Vero E6): 21.2 µM; CC50 at 72 h [2, 5]: 21.2 µM; Cmax (maximum plasma concentration) [3]: 50 ng/mL
C[C@H]1[C@H](OC(=O)CCC(=O)O)O[C@@H]2O[C@@]3(C)CC[C@H]4[C@H](C)CC[C@@H]1[C@@]24OO3 [Artesunic acid (AS), Artesunic acid]	74	< 80	74	125	< 80	
C=C[C@H]1C[N@@]2CC[C@H]1C[C@H]2[C@H](O)c1ccnc2ccc(OC)cc12 [Quinine Sulfate (QN), Quinine Sulfate]		90	74	5	< 80	
OC(c1cc(C(F)(F)F)nc2c(C(F)(F)F)cccc12)C1CCCCN1 (stereo not shown) [Mefloquine (MQ), Mefloquine]		82		30	105	
C[C@H]1[C@H](N2CCS(=O)(=O)CC2)O[C@@H]2O[C@@]3(C)CC[C@H]4[C@H](C)CC[C@@H]1[C@@]24OO3 [Artemisone (ASO), Artemisone]		93		125	92	
CCN(CCO)CCCC(C)Nc1ccnc2cc(Cl)ccc12 (stereo not shown) [Hydroxychloroquine Minsa (HCQ-m), Hydroxychloroquine]	84		72			% viability Vero E6 (Vero-E6 cells; listed as HCQ-m): < 80%
CN(C)C(=O)COC(=O)Cc1ccc(OC(=O)c2ccc(NC(=N)N)cc2)cc1 [Camostat mesylate (CAM), Camostat mesylate]		112		50	118	
Ivermectin [Ivermectin Liquida (IVM-li)]	87		85	30		
CCc1nc(N)nc(N)c1-c1ccc(Cl)cc1 [Pyrimethamina (PYR), Pyrimethamina]		92		125	94	
CC[C@H](C)[C@H]1O[C@]2(CC[C@@H]1C)C[C@@H]1C[C@@H](C/C=C(\C)[C@@H](O[C@H]3C[C@H](OC)[C@@H](O[C@H]4C[C@H](OC)[C@@H](O)[C@H](C)O4)[C@H](C)O3)[C@@H](C)/C=C/C=C3\CO[C@@H]4[C@H](O)C(C)=C[C@@H](C(=O)O1)[C@]34O)O2 [Ivermectin (IVM), Ivermectin]	87		93	8		CC50 (Vero E6 cells): 74 µM; CC50% (Vero E6 cells): 64.8 µg/mL (≈ 74 µM); Cmax (maximum plasma concentration) [3]: 50 ng/mL
C[C@H]1[C@H](OC(=O)CCC(=O)O)O[C@@H]2O[C@@]3(C)CC[C@H]4[C@H](C)CC[C@@H]1[C@@]24OO3 [Artesunate injection (ASi), Artesunate]	82		81	50		MNCC Concentration (Vero-E6 and Calu-3 cells; listed as ASi): 50 µM; CC50 at 72 h ([2]; CC50% in µg/mL, Vero E6): 27 µg/mL; CC50 at 72 h ([2]; CC50%, Vero E6): 70.3 µM; Cmax (maximum plasma concentration) [3]: 3300 ng/mL
Ferroquine [Ferroquine (FQ)]	63		75	5		% viability Vero E6 (Vero-E6 cells; listed as FQ): < 80%
COc1ccc2nc3cc(Cl)ccc3c(Nc3cc(CN4CCCC4)c(O)c(CN4CCCC4)c3)c2n1 [Pyranoridine (PNO), Pyranoridine]	78		91	5		% viability Calu-3 (Calu-3 cells; listed as PNO): < 80%
CCN(CC)Cc1cc(Nc2ccnc3cc(Cl)ccc23)ccc1O [Amodiaquine (AQ), Amodiaquine]		82		20	84	
CCO[C@H]1O[C@@H]2O[C@@]3(C)CC[C@H]4[C@H](C)CC[C@@H]([C@H]1C)[C@@]24OO3 [Arteether (AE), Arteether]		97		125	104	
Ivermectin [Ivermectin Farmacia (IVM-f)]	67		101	75		% viability Calu-3 (Calu-3 cells; listed as IVM-f): < 80%
CC[C@H]1OC(=O)[C@H](C)[C@@H](O[C@H]2C[C@@](C)(OC)[C@@H](O)[C@H](C)O2)[C@H](C)[C@@H](O[C@@H]2O[C@H](C)C[C@H](N(C)C)[C@H]2O)[C@](C)(O)C[C@@H](C)CN(C)[C@H](C)[C@@H](O)[C@]1(C)O [Azithromycin dehydrate (AZH), Azithromycin dehydrate]		87		30	92	
C[C@H]1[C@@H](OCc2ccc(C(=O)O)cc2)O[C@@H]2O[C@@]3(C)CC[C@H]4[C@H](C)CC[C@@H]1[C@@]24OO3 [Artelinic Acid (AA), Artelinic Acid]	92		100	30		

Reference: paper PMC12175177 (Frontiers in Pharmacology, 2025)
